Reference: US10413535B2, “Pharmaceutical compositions comprising an integrin ALPHA4 antagonist for use in treating ocular inflammatory conditions” (AXEROVISION, INC., priority 2015, dated 2019)
“And” between values parts separate entries of the source, which are not always exact repeats. Equal values may be shown once. “Also recorded” adds a separate entry of the source. Read-outs that look alike come from different tables or passages of the source.

Assays:
[1] = target: T1, integrin α4 (Homo sapiens, UniProt P13612); experiment: IC50/IC90 concentrations and required tissue levels quoted in FIG. 6 legend
T1 sequence (P13612 34-1032): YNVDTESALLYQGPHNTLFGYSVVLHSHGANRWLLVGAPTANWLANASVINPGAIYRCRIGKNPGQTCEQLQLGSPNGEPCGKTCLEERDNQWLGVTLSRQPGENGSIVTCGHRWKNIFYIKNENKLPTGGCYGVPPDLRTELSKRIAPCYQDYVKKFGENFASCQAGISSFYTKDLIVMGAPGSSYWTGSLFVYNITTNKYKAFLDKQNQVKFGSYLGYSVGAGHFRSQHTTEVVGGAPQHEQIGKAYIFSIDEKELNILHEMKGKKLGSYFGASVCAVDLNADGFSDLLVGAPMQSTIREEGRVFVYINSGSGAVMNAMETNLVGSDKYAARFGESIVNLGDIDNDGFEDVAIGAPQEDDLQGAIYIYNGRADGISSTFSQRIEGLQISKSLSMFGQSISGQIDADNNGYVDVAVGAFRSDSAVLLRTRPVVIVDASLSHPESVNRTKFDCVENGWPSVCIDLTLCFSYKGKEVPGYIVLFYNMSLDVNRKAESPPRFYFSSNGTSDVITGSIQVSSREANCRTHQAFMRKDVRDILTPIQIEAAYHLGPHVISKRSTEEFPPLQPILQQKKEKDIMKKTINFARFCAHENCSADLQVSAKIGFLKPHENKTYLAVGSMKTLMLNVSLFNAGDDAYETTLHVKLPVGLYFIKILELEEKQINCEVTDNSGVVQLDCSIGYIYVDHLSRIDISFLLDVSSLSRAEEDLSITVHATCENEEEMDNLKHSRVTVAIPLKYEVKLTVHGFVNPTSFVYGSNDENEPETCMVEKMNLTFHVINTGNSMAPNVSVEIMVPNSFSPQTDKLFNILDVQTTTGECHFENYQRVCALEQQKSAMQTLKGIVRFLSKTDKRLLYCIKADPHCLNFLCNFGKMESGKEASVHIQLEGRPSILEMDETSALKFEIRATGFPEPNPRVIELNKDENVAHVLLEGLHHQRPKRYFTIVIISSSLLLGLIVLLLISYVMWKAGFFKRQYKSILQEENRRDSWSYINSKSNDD

[2] = test system: cells of draining cervical lymph nodes; experiment: Flow cytometry of draining cervical lymph nodes, desiccating stress 1 day; assay type: in vivo, mouse; settings: 1 day DS; for CD11c+ dendritic cells in draining cervical lymph nodes / CD11c+/MHC II+ dendritic cells in draining cervical lymph nodes: listed as compound of formula I
Protocol: Female C57BL/6 mice, aged 6 to 8 weeks, were subjected to DS for 5 days (DS5) as described previously (de Paiva et al., 2006b; Niederkorn et al., 2006). Topical bilateral treatment with 1 eye drop per eye (2 μL volume) or subcutaneous injection (4 μL volume), 2 times per day, was initiated on day 1 concurrently with DS and continued through day 4. Treatment with the compound of formula I or dexamethasone phosphate 0.1% was compared to correspondingly treated vehicle controls. Mice were randomized to receive one of the test articles. Control mice were kept in a non-stressed (NS) environment maintained at 50-75% relative humidity without exposure to airflow or scopolamine and were not treated with test or control article. Treatment effects were assessed on corneal staining with Oregon Green Dextran (OGD); expression of inflammatory markers in ocular surface tissues by real time PCR; cell population analysis in draining cervical lymph nodes by FACS analysis; conjunctival T cell infiltration by immunohistochemistry.
Cervical draining lymph nodes (CLN) were surgically excised, placed in a round culture plate with ˜8 mL of complete RPMI media and smashed between two frosted slides.
Single-cell suspensions of CLN from C57BL/6 mice, treated under DS conditions for 1 day, were prepared, centrifuged and sequentially filtered, as previously described (de Paiva et al., 2009a). Subsequently 1.0 mL of ACT solution was added for 30 seconds followed by 2.0 mL of complete RPMI. The cells were once again centrifuged and the supernatant aspirated. Cells were then re-suspended in 2.0 mL of complete RPMI and prepared for counting. Ten μL of Trypan Blue were used for counting and the cells were divided in tubes at 1×10^6 cells/mL. Subsequently, the cells were incubated on ice in 20 μL unconjugated anti-mouse CD16/CD32 (BD Pharmingen, San Diego, Calif.) followed by 80 μL of directly conjugated primary antibody or isotype. Finally the samples were washed with 1 mL PBS/1% FBS, centrifuged and re-suspend in 0.3 mL PBS/1% FBS containing 1:1000 of PI. The samples were stored at 4° C. until the analysis was performed with an A BD LSRII Benchtop cytometer. The data was analysed using BD Diva Software (BD Pharmingen) and FlowJo (TreeStar Inc).
Due to skewed distribution of OGD data, the analysis was done on the log 10 scale to make the data more normally distributed. Log 10 OGD data was averaged across two observers and the left and right eyes. The mixed effects ANOVA model included treatment group as a fixed effect and week as a random effect. 95% and 99% confidence intervals were constructed for the disease (5 day DS vs untreated group kept in separate vivarium) and compound treatment effects (treatment vs vehicle). As these comparisons were all pre-planned (comparing each treatment to its vehicle group), no adjustment was made for multiplicity. Log 10 scale treatment effect estimates and confidence limits were converted back to the original OGD scale, thus representing the estimate for the ratio of group geometric means and their confidence limits. For gene expression analysis, an unpaired T test was performed to compare drug and vehicle treatment. For flow cytometry analysis, a 2-way ANOVA with fixed treatment and random experiment effects was employed to test the treatment differences. The analysis was followed by Dunnett's multiple comparison procedure to compare each of the treatment groups with the vehicle group. T cell density was calculated for each section and averaged across sections for each animal. As the distribution of average cell density data was non-normal, it was analyzed by using non-parametric methods (Kruskal-Wallis procedure, followed by Dunn's multiple comparisons technique).
The draining CLN are an integral part of the immune cycle in DED (Pflugfelder et al., 2008; Schaumburg et al., 2011). […]

[3] = topical treatment, vs vehicle (GW559090 30 mg/mL, 60 μg per eye; Dex 0.1%)

Question: For Cc1ccccc1OCC(=O)N[C@@H](CC(C)C)C(=O)N[C@@H](Cc1ccc(OC(=O)N2CCC(C(N)=O)CC2)cc1)C(=O)O [GW559090, (2S)-3-[4-({[4-(Aminocarbonyl)-1-piperidinyl]carbonyl}oxy)phenyl]-2-[((2S)-4-methyl-2-{[2-(2-methylphenoxy)acetyl]amino}pentanoyl)amino]propanoic acid], which IC50 ([1]; FIG. 6 legend, read-out: 1050 concentration (converted)) is on record?
Answer: Its IC50 is ~8 nM and ~8.38 nM.

Question: And the IC90 ([1]; FIG. 6 legend, read-out: IC90 concentration)?
Answer: Its IC90 is ~80 nM and ~0.048 µg/mL.

Question: What about the “Approximate tissue level required to achieve the 1050 concentration” value ([1]; if protein binding is 98%) of the same compound?
Answer: Its value is ~400 nM and ~240 ng/mL.

Question: And the IC90 ([1]; if protein binding is 98%, read-out: Approximate tissue level required to achieve the IC90 concentration)?
Answer: The IC90 was ~4 µM and ~2.4 µg/mL.

Question: And the “CD4+ and CD8+ T cells in draining lymph nodes” value [2]?
Answer: Its value is “nor did treatment with the compound of formula I or dexamethasone decrease the number of T cells”.

Question: What about the “CD11c+ dendritic cells in draining cervical lymph nodes” value ([2]; systemic (SC BID, 120 μg)) of the same compound?
Answer: The value was “Neither systemic treatment with the compound of formula I nor topical treatment with dexamethasone phosphate produced the same effect; also recorded: no significant effect”.

Question: What about the “CD11c+/MHC II+ dendritic cells in draining cervical lymph nodes” value ([2]; systemic (SC BID, 120 μg)) of the same compound?
Answer: Its value is “no significant effect”.

Question: What about the “CD11c+ dendritic cells in draining cervical lymph nodes” value [2, 3] of the same compound?
Answer: The value was “reduced; also recorded: decreases”.

Question: And the “CD11c+/MHC II+ dendritic cells in draining cervical lymph nodes” value [2, 3]?
Answer: The value was “reduced; also recorded: decreases”.
